Structures are written as SMILES. pIC50: −log10 of the molar value.

Data set [1] in a line: in vitro. To be noted: CD-1, mouse, microsomes.
The nature of data set [2]: in vitro. To be noted: CD-1, mouse, liver microsomes.
Description: Metabolic stability in CD-1 mouse liver microsomes assessed as parent compound remaining at 100 uM measured after 60 mins by LC-MS/MS analysis
Data set [3] can be described thus: in vitro. To be noted: CD-1, mouse, liver microsomes. The source holds these as a separate data set. In general terms: Liver microsomes are vesicles of endoplasmic reticulum, rich in cytochrome P450 enzymes.
Data set [4] is described as follows: in vitro. To be noted: CD-1, mouse, liver microsomes. The source holds these as a separate data set.
Data set [5] in a line: in vitro. To be noted: CD-1, mouse, liver microsomes. The source holds these as a separate data set.
Description: Metabolic stability in CD-1 mouse liver microsomes assessed as parent compound remaining at 100 uM measured after 60 mins in presence of NADPH by LC-MS/MS analysis
The test system of the next data set is MDA-MB-231. Description: Antiproliferative activity against human MDA-MB-231 cells assessed as reduction in cell viability incubated for 72 hrs by WST8 assay. Particulars: MDA-MB-231, 72 h. Format: functional, cell-based.
The test system of data set [6] is MCF7. Description: Antiproliferative activity against human MCF7 cells assessed as reduction in cell viability incubated for 72 hrs by WST8 assay. To be noted: MCF7, 72 h. Format: functional, cell-based. In general terms: Tetrazolium assays rely on reduction of a dye to a coloured formazan, in cell work by metabolically active cells.
Data set [7] addresses Epidermal growth factor receptor (Homo sapiens, UniProt P00533). Particulars: 0.5 h.
Description: Effect on human EGFR in presence of substrate and [gamma-32ATP] at 10 uM incubated for 30 mins by scintillation counting based radiometry assay relative to control
In data set [8] the target is T1, Receptor tyrosine-protein kinase erbB-2 (Homo sapiens, UniProt P04626). As to the kind of experiment: Inhibition of HER2 (unknown origin) in presence of substrate incubated for 30 mins by ADP-Glo assay. Background: ADP-Glo turns the ADP formed in a reaction into a luminescent signal.
Another data set relates to AU565. As to the kind of experiment: Antiproliferative activity against human AU565 cells assessed as reduction in cell viability incubated for 72 hrs by WST8 assay. Format: functional, cell-based. To be noted: AU565, 72 h.
For data set [9], the target named is T1, Receptor tyrosine-protein kinase erbB-2. Particulars: Sf9, human, 0.5 h.
The target is the same in data set [10]. Description: Inhibition of wild-type HER2 (unknown origin) at 0.5 nM in presence of substrate incubated for 30 mins by ADP-Glo assay relative to control.
Data set [11] deals with Platelet-derived growth factor receptor alpha (Homo sapiens, UniProt P16234). Description: Effect on human recombinant N-terminal GST-tagged PDGFRalpha (550 to end residues) expressed in baculovirus infected Sf9 insect cells in presence of substrate and [gamma-32ATP] at 10 uM incubated for 30 mins by scintillation counting based radiometry assay relative to control. To be noted: 0.5 h, read-out: Activity.

Data set [12] concerns the target Receptor tyrosine-protein kinase erbB-4 (Homo sapiens, UniProt Q15303). Description: Effect on human recombinant N-terminal GST-tagged HER4 (682 to 993) expressed in baculovirus infected Sf9 insect cells in presence of substrate and [gamma-32ATP] at 10 uM incubated for 30 mins by scintillation counting based radiometry assay relative to control. To be noted: 0.5 h, read-out: Activity.

The subject of the next data set is BT-474. Description: Antiproliferative activity against human BT474 cells assessed as reduction in cell viability incubated for 72 hrs by WST8 assay. The format is functional, cell-based. To be noted: BT-474, 72 h.
Data set [13] has as its system MCF7. Description: Antiproliferative activity against human MCF7 cells assessed as lethality at 10 uM after 48 hrs by SRB assay relative to control. Format: functional.
Data set [14] has as its system Panel NCI-60 (60 carcinoma cell lines). Description: Antiproliferative activity against human NCI60 cells assessed as lethality at 10 uM after 48 hrs by SRB assay relative to control. Format: functional.
Data set [15] in a line: Antiproliferative activity against human MDA-MB-231 cells assessed as lethality at 10 uM after 48 hrs by SRB assay relative to control. The format is functional, MDA-MB-23.
The subject of data set [16] is MCF7. Description: Potency index, ratio of lapatinib IC50 to test compound IC50 for antiproliferative activity against human MCF7 cells. The format is functional.
The subject of data set [17] is MDA-MB-468. Description: Antiproliferative activity against human MDA-MB-468 cells assessed as cell growth inhibition at 10 uM after 48 hrs by SRB assay relative to control. The format is functional. Particulars: read-out: GI.
Data set [18] deals with MDA-MB-468. As to the kind of experiment: Antiproliferative activity against human MDA-MB-468 cells assessed as lethality at 10 uM after 48 hrs by SRB assay relative to control. The format is functional.
Data set [19] is described as follows: Antiproliferative activity against human BC assessed as lethality at 10 uM after 48 hrs by SRB assay relative to control. Format: functional.
Data set [20] in a line: Antiproliferative activity against human BC assessed as cell growth inhibition at 10 uM after 48 hrs by SRB assay relative to control. The format is functional. Particulars: read-out: GI.
Data set [21] relates to Panel NCI-60 (60 carcinoma cell lines). As to the kind of experiment: Antiproliferative activity against human NCI60 cells assessed as mean cell growth at 10 uM after 48 hrs by SRB assay relative to control. The format is functional.

T1 sequence (P04626 whole entry): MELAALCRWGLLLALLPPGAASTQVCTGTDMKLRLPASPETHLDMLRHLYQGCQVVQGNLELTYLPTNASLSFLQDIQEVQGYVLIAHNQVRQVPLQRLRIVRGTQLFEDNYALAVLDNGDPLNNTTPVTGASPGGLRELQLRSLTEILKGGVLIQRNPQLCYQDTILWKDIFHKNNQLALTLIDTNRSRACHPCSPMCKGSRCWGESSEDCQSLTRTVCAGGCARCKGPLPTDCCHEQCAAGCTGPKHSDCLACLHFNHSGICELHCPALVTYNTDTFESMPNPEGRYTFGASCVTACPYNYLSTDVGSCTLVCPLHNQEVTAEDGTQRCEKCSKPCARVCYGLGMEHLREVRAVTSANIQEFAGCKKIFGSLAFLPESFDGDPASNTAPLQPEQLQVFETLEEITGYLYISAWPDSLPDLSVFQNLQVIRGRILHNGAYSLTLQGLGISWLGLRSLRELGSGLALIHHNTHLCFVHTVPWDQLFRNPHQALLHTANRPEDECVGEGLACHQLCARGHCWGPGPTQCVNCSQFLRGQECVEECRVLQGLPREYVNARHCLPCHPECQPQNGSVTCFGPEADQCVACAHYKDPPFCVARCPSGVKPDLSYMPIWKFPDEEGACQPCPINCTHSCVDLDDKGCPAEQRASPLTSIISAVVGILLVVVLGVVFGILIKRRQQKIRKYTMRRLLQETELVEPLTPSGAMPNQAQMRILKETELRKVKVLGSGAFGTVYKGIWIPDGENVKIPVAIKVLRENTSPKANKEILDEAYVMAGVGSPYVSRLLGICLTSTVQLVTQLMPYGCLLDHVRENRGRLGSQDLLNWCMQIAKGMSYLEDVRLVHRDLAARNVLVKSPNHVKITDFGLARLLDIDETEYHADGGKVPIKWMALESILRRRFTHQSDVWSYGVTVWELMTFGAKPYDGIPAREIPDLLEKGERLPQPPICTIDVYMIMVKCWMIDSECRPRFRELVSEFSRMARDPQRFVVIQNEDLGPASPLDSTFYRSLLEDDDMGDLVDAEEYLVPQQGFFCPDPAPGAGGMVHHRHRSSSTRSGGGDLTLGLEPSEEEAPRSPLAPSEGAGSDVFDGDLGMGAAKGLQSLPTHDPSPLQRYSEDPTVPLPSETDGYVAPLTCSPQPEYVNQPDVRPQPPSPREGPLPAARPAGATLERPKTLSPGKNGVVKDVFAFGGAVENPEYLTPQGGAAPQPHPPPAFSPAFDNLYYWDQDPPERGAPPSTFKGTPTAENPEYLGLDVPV
Chain of Receptor tyrosine-protein kinase erbB-4 (Q15303 whole entry): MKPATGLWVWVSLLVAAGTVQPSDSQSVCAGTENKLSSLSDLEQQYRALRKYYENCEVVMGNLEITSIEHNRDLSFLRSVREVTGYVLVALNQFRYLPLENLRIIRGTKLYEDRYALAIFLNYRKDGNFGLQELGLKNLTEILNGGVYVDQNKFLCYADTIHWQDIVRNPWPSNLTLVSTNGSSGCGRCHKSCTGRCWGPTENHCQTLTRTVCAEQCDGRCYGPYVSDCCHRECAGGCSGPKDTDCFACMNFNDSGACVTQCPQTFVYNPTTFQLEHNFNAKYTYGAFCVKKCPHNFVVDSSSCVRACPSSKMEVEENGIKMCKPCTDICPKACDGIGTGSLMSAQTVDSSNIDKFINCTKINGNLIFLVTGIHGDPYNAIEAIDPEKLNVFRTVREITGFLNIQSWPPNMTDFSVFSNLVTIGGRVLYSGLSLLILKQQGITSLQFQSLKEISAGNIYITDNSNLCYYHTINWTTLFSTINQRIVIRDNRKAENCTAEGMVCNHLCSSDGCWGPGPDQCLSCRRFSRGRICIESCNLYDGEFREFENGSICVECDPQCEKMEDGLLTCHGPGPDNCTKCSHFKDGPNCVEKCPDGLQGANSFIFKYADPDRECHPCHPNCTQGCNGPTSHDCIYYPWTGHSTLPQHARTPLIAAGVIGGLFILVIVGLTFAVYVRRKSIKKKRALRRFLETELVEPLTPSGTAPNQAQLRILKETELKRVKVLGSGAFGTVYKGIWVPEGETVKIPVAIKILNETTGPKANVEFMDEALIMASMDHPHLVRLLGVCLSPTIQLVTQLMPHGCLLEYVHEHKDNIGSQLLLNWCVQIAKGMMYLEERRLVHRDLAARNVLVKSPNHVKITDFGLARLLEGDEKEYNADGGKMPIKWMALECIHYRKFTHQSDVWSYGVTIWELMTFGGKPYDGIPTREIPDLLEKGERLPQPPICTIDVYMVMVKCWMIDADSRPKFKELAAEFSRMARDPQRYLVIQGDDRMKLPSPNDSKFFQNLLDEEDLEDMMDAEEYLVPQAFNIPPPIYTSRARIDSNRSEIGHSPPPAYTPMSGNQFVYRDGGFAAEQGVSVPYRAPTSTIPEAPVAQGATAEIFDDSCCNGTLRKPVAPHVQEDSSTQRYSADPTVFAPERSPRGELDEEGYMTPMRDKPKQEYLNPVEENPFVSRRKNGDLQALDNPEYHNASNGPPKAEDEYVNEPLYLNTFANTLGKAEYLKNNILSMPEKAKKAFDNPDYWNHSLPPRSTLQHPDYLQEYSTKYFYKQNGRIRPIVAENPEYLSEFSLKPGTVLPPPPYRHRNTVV
Chain of Platelet-derived growth factor receptor alpha (P16234 whole entry): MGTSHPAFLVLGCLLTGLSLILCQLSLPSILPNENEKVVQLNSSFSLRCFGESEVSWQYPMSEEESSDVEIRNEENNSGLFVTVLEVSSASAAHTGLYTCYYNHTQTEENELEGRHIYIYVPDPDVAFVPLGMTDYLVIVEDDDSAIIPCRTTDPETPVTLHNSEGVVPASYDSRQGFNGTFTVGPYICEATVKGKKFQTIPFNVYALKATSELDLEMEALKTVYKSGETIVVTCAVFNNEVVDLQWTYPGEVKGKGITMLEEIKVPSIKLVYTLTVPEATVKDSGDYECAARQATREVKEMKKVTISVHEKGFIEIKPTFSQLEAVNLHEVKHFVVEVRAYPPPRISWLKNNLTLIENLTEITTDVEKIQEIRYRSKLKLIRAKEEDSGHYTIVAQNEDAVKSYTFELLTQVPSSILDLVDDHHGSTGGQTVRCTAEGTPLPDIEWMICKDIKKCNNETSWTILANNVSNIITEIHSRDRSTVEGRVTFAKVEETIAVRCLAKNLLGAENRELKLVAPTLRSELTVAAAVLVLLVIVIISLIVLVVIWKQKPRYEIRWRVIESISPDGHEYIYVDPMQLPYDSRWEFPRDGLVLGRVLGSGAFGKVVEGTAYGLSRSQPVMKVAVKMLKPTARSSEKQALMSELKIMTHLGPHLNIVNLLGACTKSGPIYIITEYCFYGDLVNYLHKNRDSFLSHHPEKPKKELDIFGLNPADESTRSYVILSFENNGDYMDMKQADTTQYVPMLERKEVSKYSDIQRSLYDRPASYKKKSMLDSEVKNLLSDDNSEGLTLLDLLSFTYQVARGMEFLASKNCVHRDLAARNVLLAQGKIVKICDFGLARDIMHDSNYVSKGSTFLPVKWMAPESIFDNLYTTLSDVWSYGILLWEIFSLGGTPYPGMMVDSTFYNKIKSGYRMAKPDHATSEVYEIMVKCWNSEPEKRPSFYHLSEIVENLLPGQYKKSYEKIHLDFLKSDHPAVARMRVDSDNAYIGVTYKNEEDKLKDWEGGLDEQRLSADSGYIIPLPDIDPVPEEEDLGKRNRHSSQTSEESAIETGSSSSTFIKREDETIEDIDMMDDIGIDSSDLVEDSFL
Chain of Epidermal growth factor receptor (P00533 whole entry): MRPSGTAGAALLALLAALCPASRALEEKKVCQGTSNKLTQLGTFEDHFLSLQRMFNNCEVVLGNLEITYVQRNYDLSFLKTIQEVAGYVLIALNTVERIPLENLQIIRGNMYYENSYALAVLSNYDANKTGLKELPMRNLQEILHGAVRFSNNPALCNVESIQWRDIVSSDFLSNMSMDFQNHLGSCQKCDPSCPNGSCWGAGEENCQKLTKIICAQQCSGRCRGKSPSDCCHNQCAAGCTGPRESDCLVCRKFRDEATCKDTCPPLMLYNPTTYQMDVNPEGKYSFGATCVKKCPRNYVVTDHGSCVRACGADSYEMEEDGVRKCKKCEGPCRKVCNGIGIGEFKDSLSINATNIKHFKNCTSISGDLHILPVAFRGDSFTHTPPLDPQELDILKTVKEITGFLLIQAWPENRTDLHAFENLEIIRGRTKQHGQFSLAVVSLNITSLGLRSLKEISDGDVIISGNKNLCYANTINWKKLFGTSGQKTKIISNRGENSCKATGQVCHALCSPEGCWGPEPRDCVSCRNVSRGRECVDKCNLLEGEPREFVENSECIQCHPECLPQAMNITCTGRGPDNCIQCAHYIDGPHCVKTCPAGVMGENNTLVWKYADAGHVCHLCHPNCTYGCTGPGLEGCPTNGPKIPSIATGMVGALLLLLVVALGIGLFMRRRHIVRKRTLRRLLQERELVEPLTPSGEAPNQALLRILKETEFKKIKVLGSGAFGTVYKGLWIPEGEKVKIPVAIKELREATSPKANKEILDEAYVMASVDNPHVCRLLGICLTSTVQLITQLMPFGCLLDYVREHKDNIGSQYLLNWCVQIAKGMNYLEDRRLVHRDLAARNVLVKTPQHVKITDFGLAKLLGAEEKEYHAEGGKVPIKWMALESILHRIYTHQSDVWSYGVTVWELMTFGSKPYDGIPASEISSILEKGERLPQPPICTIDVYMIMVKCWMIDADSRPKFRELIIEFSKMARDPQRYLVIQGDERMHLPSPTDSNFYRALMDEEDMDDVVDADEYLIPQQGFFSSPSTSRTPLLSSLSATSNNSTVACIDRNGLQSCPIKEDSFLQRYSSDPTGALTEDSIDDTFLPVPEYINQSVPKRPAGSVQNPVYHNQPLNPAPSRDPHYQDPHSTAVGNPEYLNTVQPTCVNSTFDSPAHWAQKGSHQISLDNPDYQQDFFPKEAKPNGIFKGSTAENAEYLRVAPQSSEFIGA

`O=C(O)Cc1ccccc1Nc1c(Cl)cccc1Cl` [DICLOFENAC]: the microsomal CLint (as a rule, a measure of how fast metabolising enzymes remove a compound, apart from limits set by blood flow) at 1 h, 100 µM in “in vitro [1]” came to 23.1 µL/min/mg. The amount remaining at 1 h, 100 µM in the data set “in vitro [2]” was 102%; in the data set “in vitro [5]” it was 50.2%. Also, the half-life (usually the time needed for the level to fall by half in the phase considered) at 1 h, 100 µM in the data set “in vitro [3]” was found to be 1 h. For the same molecule, in “in vitro [4]”, the CLint scaled (commonly the capacity of the preparation to metabolise the compound, expressed as a volume cleared per time) at 1 h, 100 µM stood at 91.5 mL/min/kg.
As to `O=C(CNCCO)Nc1ccc2ncnc(Nc3ccc(OCc4cccc(F)c4)c(Cl)c3)c2c1`, the pIC50 (usually −log10 of the IC50, conventionally taken in molar units) was 5.06 in the data set with MDA-MB-231; 5.06 in the data set on MCF7 [6]; 7.98 in data set [8]; 6.66 in the data set with AU565; 6.62 in the data set on BT-474. For the same molecule, the activity at 10 µM was -78% in data set [7], -93% in data set [9], 54% in data set [11] and -98% in data set [12]. For the same molecule, the inhibition (commonly the relative decrease from the control value, in per cent) in data set [10] worked out at 3%.
In the case of `CN1CCN(CCCOc2ccc3ncnc(Nc4ccc(Oc5cccc(C(F)(F)F)c5)c(Cl)c4)c3c2)CC1`, the pIC50 with MDA-MB-231 is 5.97; in the data set on MCF7 [6], 5.77; with AU565, 6.35; in the data set with BT-474, 6.70. Besides, the Activity in the data set with MCF7 [13] was 18%; in data set [14], 1.3%; in data set [15] it was 18%; with MDA-MB-468 [18], 18%; in [19], “<=78.7%”; in data set [21] it was 11.85%. For the same molecule, the “Ratio IC50” value in the data set with MCF7 [16] was “<=20”. For the same molecule, the activity at 10 µM is -78% in data set [7], -92% in data set [9], 115% in [11] and -99% in data set [12]. The results for the inhibition of growth at 10 µM (in the data set with MDA-MB-468 [17]; in data set [20]) were 18.8% and ≤ 78.7%, respectively.

(Values after ChEMBL document CHEMBL4715878 (J Med Chem, 2020).)
